Tests used:
[1] = biological target: T1, Human alpha-thrombin (Homo sapiens, UniProt P00734); test: Thrombin counterscreen for selectivity, fluorogenic substrate assay; format: biochemical; details: Human alpha-thrombin 12.5 nM, Boc-Val-Pro-Arg-AMC 20 μM, 10 min preincubation
T1 construct: Human alpha-thrombin (Enzyme Research Labs); purchased Enzyme Research Labs
Protocol: Counterscreens for Selectivity:
In a 96-well white opaque plate, 80 μl of assay buffer was added to each well. Test compounds were added, and serially diluted as above, to generate a concentration range of approximately 1-100 μM. […] 80 μl of this enzyme solution was added to the assay wells. The enzyme/compound mixtures were incubated for 10 minutes at room temperature. Fluorogenic substrate (Boc-Val-Pro-Arg-7-amido-4-methylcoumarin; Sigma) was added to assay wells at a final concentration of 20 μM. The assay plate was spun for 1 minute at 1500 g and then read at 37° C. in a SpectraMax M2 plate reader (λex=380 nm and λem=460 nm). Activity was quantified as the rate of change in fluorescence, which corresponds to the rate of substrate cleavage.

[2] = biological target: T2, Human FXIIa (Homo sapiens, UniProt P00748); test: Factor XIIa (FXIIa) inhibitory activity, chromogenic substrate assay; format: biochemical; details: Human FXIIa 12.5 nM, Pefachrome XIIa 400 μM, 10 min preincubation
T2 construct: active coagulation factor XII (FXIIa); purchased Enzyme Research Labs
T2 sequence (P00748 373-615 limits assumed): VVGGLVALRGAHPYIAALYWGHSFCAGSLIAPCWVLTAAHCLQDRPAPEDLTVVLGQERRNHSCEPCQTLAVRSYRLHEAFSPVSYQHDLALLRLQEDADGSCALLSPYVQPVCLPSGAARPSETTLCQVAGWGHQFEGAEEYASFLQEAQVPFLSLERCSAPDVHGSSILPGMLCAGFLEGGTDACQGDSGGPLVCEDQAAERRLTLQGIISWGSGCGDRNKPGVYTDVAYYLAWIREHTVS
T2 sequence (P00748 20-372 partner limits assumed): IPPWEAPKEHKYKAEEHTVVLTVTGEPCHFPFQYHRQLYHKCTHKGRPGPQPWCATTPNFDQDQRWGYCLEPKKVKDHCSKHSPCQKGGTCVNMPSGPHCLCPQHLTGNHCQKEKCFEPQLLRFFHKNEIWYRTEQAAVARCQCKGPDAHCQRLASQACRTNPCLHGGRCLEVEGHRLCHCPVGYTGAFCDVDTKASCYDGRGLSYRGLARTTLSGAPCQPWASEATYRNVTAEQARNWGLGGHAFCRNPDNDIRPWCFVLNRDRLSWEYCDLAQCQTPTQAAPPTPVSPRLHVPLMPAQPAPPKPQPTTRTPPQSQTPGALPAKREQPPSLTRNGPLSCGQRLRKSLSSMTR
Method in brief: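 Activity was taken as the rate of absorbance increase at 405 nm, read at 37 °C after adding 400 μM (final) Pefachrome XIIa. Compounds spanning roughly 1–100 μM were first preincubated with enzyme for 10 min at room temperature in HEPES pH 7.4-buffered HBSS/TBS-Tween.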

Row | IC50 [1] [µM] | IC50 [2] [µM] | SMILES
1 | > 75 | 1.2 | Nc1c2c(nn1C(=O)[C@@H]1CCNc3ccc(F)cc31)CC[C@H](O)C2 (relative stereo) [Example 134, ((5S*)-3-amino-5-hydroxy-4,5,6,7-tetrahydro-1H-indazol-2-yl)((4R*)-6-fluoro-1,2,3,4-tetrahydroquinolin-4-yl)methanone]
2 | > 50 | ≥ 50 | Nc1c2c(nn1C(=O)C1CCCc3ccccc31)CCCC2 (single isomer, unassigned) [Example 6, (R*)-(3-amino-4,5,6,7-tetrahydroindazol-2-yl)(1,2,3,4-tetrahydronaphthalen-1-yl)methanone]
3 | 25 | 0.01 | CCc1cc2c(C(=O)n3nc4c(c3N)CCCC4)cccc2[nH]1 [Example 50, (3-amino-4,5,6,7-tetrahydroindazol-2-yl)(2-ethyl-1H-indol-4-yl)methanone]
4 | > 150 | 0.05 | Nc1c2c(nn1C(=O)[C@H]1CCNc3ccc(F)cc31)CC[C@@H](O)C2 (single isomer, unassigned) [Example 129, ((5R*)-3-amino-5-hydroxy-4,5,6,7-tetrahydro-2H-indazol-2-yl)(4(S*)-6-fluoro-1,2,3,4-tetrahydroquinolin-4-yl)methanone]
5 | > 80 | 0.04 | Nc1c2c(nn1C(=O)[C@H]1CCNc3ccc(Cl)cc31)CC[C@@H](O)C2 (single isomer, unassigned) [Example 148, ((5R*)-3-amino-5-hydroxy-4,5,6,7-tetrahydroindazol-2-yl)((4S*)-6-chloro-1,2,3,4-tetrahydroquinolin-4-yl)methanone]
6 | > 100 | 0.07 | Nc1c2c(nn1C(=O)[C@H]1CCNc3ccc(F)cc31)C[C@H](O)CC2 (single isomer, unassigned) [Example 185, ((6R*)-3-amino-6-hydroxy-4,5,6,7-tetrahydroindazol-2-yl)((4S*)-6-fluoro-1,2,3,4-tetrahydroquinolin-4-yl)methanone]
7 | > 50 | 0.15 | Nc1c2c(nn1C(=O)c1csc3ccccc13)CCCC2 [Example 32, (3-amino-4,5,6,7-tetrahydroindazol-2-yl)(benzo[b]thiophen-3-yl)methanone]
8 | > 50 | > 50 | Nc1nn(C(=O)c2cccc3[nH]ccc23)c2c1CCCC2 (single isomer, unassigned) [Example 2, (3-amino-4,5,6,7-tetrahydroindazol-1-yl)(1H-indol-4-yl)methanone]
9 | > 70 | 5 | Nc1c2c(nn1C(=O)c1cccc3c1ccn3Cc1ccccc1)CCCC2 [Example 30, (3-amino-4,5,6,7-tetrahydroindazol-2-yl)(1-benzyl-1H-indol-4-yl)methanone]
10 | > 80 | 0.09 | CO[C@@H]1CCc2nn(C(=O)[C@@H]3CCNc4ccc(F)cc43)c(N)c2C1 (single isomer, unassigned) [Example 180, ((5R*)-3-amino-5-methoxy-4,5,6,7-tetrahydroindazol-2-yl)((4R*)-6-fluoro-1,2,3,4-tetrahydroquinolin-4-yl)methanone]
11 | > 100 | 60 | Nc1c2c(nn1C(=O)[C@@H]1CCNc3ccccc31)CC[C@H](O)C2 (single isomer, unassigned) [Example 169, ((5S*)-3-amino-5-hydroxy-4,5,6,7-tetrahydroindazol-2-yl)((4R*)-1,2,3,4-tetrahydroquinolin-4-yl)methanone]
12 | 40 | 0.02 | Cc1cc2c(C(=O)n3nc4c(c3N)CCCC4)cccc2[nH]1 (single isomer, unassigned) [Example 9, (3-Amino-4,5,6,7-tetrahydroindazol-2-yl)(2-methyl-1H-indol-4-yl)methanone]
13 | > 65 | 30 | Nc1c2c(nn1C(=O)[C@@H]1CCCc3[nH]c(Cl)cc31)CC[C@H](O)C2 (single isomer, unassigned) [Example 128, ((5S*)-3-amino-5-hydroxy-4,5,6,7-tetrahydroindazol-2-yl)((4R*)-2-chloro-4,5,6,7-tetrahydro-1H-indol-4-yl)methanone]
14 | > 100 | > 100 | CCc1csc(C)c1C(=O)n1nc(N)c2c1CCCC2 (single isomer, unassigned) [Example 19, (3-amino-4,5,6,7-tetrahydroindazol-1-yl)(4-ethyl-2-methylthiophen-3-yl)methanone]
15 | > 85 | 30 | Nc1nn(C(=O)c2cccc3[nH]c(C4CC4)cc23)c2c1CCCC2 (single isomer, unassigned) [Example 54, (3-amino-4,5,6,7-tetrahydroindazol-1-yl)(2-cyclopropyl-1H-indol-4-yl)methanone]
16 | > 100 | 25 | CCc1ccccc1C(=O)n1nc(N)c2c1CCCC2 [Example 152]
17 | 20 | > 50 | Cc1cc2ccc(C(=O)n3nc(N)c4c3CCCC4)cc2o1 [Example 61, (3-amino-4,5,6,7-tetrahydroindazol-1-yl)(2-methylbenzofuran-6-yl)methanone]
18 | > 100 | 11 | Nc1c2c(nn1C(=O)c1c[nH]c3ccccc13)CCCC2 [Example 42, (3-amino-4,5,6,7-tetrahydroindazol-2-yl)(1H-indol-3-yl)methanone]
19 | > 90 | > 90 | Nc1nn(C(=O)[C@H]2CCNc3ccccc32)c2c1C[C@@H](O)CC2 (single isomer, unassigned) [Example 171, ((5S*)-3-amino-5-hydroxy-4,5,6,7-tetrahydroindazol-1-yl)((4S*)-1,2,3,4-tetrahydroquinolin-4-yl)methanone]
20 | > 50 | 7.5 | Nc1c2c(nn1C(=O)C1CCc3ccccc31)CCCC2 (centres unmarked) [Example 46, (3-amino-4,5,6,7-tetrahydroindazol-2-yl)(2,3-dihydro-1H-inden-1-yl)methanone]
21 | > 100 | > 100 | Nc1nn(C(=O)[C@@H]2CCNc3ccccc32)c2c1C[C@@H](O)CC2 (single isomer, unassigned) [Example 172, ((5S*)-3-amino-5-hydroxy-4,5,6,7-tetrahydroindazol-1-yl)((4R*)-1,2,3,4-tetrahydroquinolin-4-yl)methanone]
22 | > 100 | 3.3 | Nc1c2c(nn1C(=O)[C@@H]1CCNc3c(Cl)cccc31)C[C@H](O)CC2 (single isomer, unassigned) [Example 210, ((6R*)-3-amino-6-hydroxy-4,5,6,7-tetrahydroindazol-2-yl)((4R*)-8-chloro-1,2,3,4-tetrahydroquinolin-4-yl)methanone]
23 | > 100 | > 100 | Nc1c2c(nn1C(=O)c1cccc3[nH]cnc13)CCCC2 [Example 48, (3-amino-4,5,6,7-tetrahydroindazol-2-yl)(1H-benzo[d]imidazol-4-yl)methanone]
24 | > 100 | > 100 | Nc1nn(C(=O)c2cccc3c2CC(=O)N3)c2c1CCCC2 (single isomer, unassigned) [Example 65, 4-(3-amino-4,5,6,7-tetrahydro-1H-indazole-1-carbonyl)indolin-2-one]
25 | 36 | 0.06 | CCn1ccc2c(C(=O)n3nc4c(c3N)CCCC4)cccc21 [Example 28, (3-amino-4,5,6,7-tetrahydroindazol-2-yl)(1-ethyl-1H-indol-4-yl)methanone]
26 | > 150 | 6 | Nc1c2c(nn1C(=O)[C@H]1CCNc3ccccc31)CC[C@H](O)C2 (single isomer, unassigned) [Example 170, ((5S*)-3-amino-5-hydroxy-4,5,6,7-tetrahydroindazol-2-yl)((4S*)-1,2,3,4-tetrahydroquinolin-4-yl)methanone]
27 | > 80 | 0.35 | Nc1c2c(nn1C(=O)[C@H]1CCCc3[nH]c(Cl)cc31)CC[C@H](O)C2 (single isomer, unassigned) [Example 127, ((5S*)-3-amino-5-hydroxy-4,5,6,7-tetrahydroindazol-2-yl)((4S*)-2-chloro-4,5,6,7-tetrahydro-1H-indol-4-yl)methanone]

Row | SMILES | IC50 [1] [µM] | IC50 [2] [µM]
28 | CCn1cc(C(=O)n2nc3c(c2N)CCCC3)c2ccccc21 [Example 43, (3-amino-4,5,6,7-tetrahydroindazol-2-yl)(1-ethyl-1H-indol-3-yl)methanone] | > 100 | 7.5

Source: patent publication US10538512B2, “Aminoacylindazole immunomodulators for treatment of autoimmune diseases” (The Rockefeller University, priority 2016, dated 2020)
